# Data from US20090023721A1, “Novel Substituted Tetracyclic Tetrahydrofuran, Pyrrolidine and Tetrahydrothiophene Derivatives and Their Use as a Medicament” (priority 2005, published 2009).
# pIC50: −log10 of the molar value. Where two headings read alike, the source gives them in different places.
# Experiments:
# [1] = molecular target: T1, NET (Rattus norvegicus, UniProt Q9WTR4); assay: In vitro determination of NET reuptake inhibition ([3H]Nixosetine binding, rat brain cortex membranes)
# T1 construct: Cortex from rat brain was collected and homogenised; from tissue; host or cells: rat brain cortex membranes
# T1 sequence (Q9WTR4 1-597): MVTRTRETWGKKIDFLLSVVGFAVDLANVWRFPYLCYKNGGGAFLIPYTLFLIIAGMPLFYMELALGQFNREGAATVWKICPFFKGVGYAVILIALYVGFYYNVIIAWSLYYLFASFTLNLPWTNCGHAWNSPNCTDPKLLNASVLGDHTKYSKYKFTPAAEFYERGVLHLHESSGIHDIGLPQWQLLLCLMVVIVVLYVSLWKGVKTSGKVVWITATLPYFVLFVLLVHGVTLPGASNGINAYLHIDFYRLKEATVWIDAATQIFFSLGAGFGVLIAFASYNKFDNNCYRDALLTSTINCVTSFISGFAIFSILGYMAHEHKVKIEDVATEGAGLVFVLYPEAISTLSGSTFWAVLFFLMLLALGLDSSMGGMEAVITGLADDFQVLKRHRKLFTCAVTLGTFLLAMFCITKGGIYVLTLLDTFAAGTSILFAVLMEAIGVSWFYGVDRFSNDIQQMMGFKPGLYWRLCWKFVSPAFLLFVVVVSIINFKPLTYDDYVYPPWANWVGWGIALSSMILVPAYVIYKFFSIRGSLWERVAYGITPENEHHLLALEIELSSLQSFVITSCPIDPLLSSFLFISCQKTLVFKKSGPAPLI
# Description: Cortex from rat brain was collected and homogenised using an Ultra-Turrax T25 and a Dual homogeniser in ice-cold homogenising buffer containing Tris, NaCl and KCl (50 mM, 120 mM and 5 mM, respectively, pH 7.4) prior to dilution to an appropriate protein concentration optimised for specific and non-specific binding. […] Membrane-bound activity was detected by filtration through a Packard Filtermate harvester onto GF/B Unifilterplates, washed with ice-cold Tris-HCl buffer, containing NaCl and KCl (50 mM, 120 mM and 4 mM; pH 7.4; 6×0.5 ml). Filters were allowed to dry for 24 h before adding scintillation fluid. Scintillation fluid was allowed to saturate filters for 24 h before counting in a Topcount scintillation counter. Percentage specific bound and competition binding curves were calculated using S-Plus software (Insightful).
# [2] = molecular target: T2, human cloned 5-HT2C receptor, expressed in CHO cells (Homo sapiens, UniProt P28335); assay: In vitro radioligand binding affinity for 5-HT2C receptor ([3H]mesulergine); conditions: for IC50 / h-5HT2C: human cloned 5-HT2C receptor in CHO cells, [3H]mesulergine; for IC50: read-out: h-5HT2C (converted)
# T2 construct: expressed in transfected cells; host or cells: CHO cells
# T2 sequence (P28335 33-458): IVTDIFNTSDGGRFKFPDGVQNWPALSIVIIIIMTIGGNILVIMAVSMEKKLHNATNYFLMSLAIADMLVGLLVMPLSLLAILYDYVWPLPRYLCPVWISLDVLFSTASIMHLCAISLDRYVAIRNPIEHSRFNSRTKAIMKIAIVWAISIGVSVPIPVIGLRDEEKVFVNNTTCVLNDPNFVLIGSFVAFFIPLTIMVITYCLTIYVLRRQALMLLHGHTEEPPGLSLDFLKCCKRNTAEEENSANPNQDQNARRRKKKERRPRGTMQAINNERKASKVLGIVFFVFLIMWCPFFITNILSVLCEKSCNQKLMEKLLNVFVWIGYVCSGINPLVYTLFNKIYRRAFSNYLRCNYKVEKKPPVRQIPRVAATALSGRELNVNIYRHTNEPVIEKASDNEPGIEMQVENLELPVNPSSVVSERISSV
# Description: The interaction of the compounds of Formula (I) with 5-HT2A and 5-HT2C receptors was assessed in in vitro radioligand binding experiments. […] During the incubation, the radioligands bind to the receptor. When equilibrium of binding is reached, the receptor bound radioactivity is separated from the non-bound radioactivity, and the receptor bound activity is counted. The interaction of the test compounds with the receptors is assessed in competition binding experiments. Various concentrations of the test compound are added to the incubation mixture containing the tissue preparation and the radioligand. Binding of the radioligand will be inhibited by the test compound in proportion to its binding affinity and its concentration.
# [3] = molecular target: T3, human cloned 5-HT2A receptor, expressed in L929 cells (Homo sapiens, UniProt P28223); assay: In vitro radioligand binding affinity for 5-HT2A receptor ([125I]R91150); conditions: human cloned 5-HT2A receptor in L929 cells, [125I]R91150; for IC50: read-out: h-5HT2A (converted)
# T3 construct: expressed in transfected cells; host or cells: L929 cells
# T3 sequence (P28223 whole entry): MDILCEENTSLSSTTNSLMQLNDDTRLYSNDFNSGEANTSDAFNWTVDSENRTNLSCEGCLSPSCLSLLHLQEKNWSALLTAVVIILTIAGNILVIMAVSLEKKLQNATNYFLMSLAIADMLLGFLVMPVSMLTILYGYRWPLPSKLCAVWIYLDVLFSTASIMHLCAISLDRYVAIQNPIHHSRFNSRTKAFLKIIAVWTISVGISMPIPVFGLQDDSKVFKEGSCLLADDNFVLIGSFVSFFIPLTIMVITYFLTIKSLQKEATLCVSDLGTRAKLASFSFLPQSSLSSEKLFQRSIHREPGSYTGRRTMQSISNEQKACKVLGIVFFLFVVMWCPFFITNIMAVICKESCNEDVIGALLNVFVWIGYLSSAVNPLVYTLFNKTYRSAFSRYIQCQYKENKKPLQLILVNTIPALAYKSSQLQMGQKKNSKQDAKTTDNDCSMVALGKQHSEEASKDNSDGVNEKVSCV
# Description: The interaction of the compounds of Formula (I) with 5-HT2A and 5-HT2C receptors was assessed in in vitro radioligand binding experiments. In general, a low concentration of a radioligand with a high binding affinity for the receptor is incubated with a sample of a tissue preparation enriched in a particular receptor (1 to 5 mg tissue) in a buffered medium (0.2 to 5 ml). During the incubation, the radioligands bind to the receptor. When equilibrium of binding is reached, the receptor bound radioactivity is separated from the non-bound radioactivity, and the receptor bound activity is counted. The interaction of the test compounds with the receptors is assessed in competition binding experiments. Various concentrations of the test compound are added to the incubation mixture containing the tissue preparation and the radioligand. Binding of the radioligand will be inhibited by the test compound in proportion to its binding affinity and its concentration. The affinities of the compounds for the 5-HT2 receptors were measured by means of radioligand binding studies conducted with: (a) human cloned 5-HT2A receptor, expressed in L929 cells using [^125I]R91150 as radioligand and (b) human cloned 5-HT2C receptor, expressed in CHO cells using [^3H]mesulergine as radioligand.
# [4] = molecular target: T4, human Dopamine D2L receptor (Homo sapiens, UniProt P14416); assay: In vitro binding affinity for human D2L receptor ([3H]Spiperone); conditions: human D2L receptor-transfected CHO cell membranes, [3H]Spiperone; for IC50: read-out: h-D2L (converted)
# T4 construct: expressed in transfected cells; host or cells: CHO cells (frozen membranes)
# T4 sequence (P14416 whole entry): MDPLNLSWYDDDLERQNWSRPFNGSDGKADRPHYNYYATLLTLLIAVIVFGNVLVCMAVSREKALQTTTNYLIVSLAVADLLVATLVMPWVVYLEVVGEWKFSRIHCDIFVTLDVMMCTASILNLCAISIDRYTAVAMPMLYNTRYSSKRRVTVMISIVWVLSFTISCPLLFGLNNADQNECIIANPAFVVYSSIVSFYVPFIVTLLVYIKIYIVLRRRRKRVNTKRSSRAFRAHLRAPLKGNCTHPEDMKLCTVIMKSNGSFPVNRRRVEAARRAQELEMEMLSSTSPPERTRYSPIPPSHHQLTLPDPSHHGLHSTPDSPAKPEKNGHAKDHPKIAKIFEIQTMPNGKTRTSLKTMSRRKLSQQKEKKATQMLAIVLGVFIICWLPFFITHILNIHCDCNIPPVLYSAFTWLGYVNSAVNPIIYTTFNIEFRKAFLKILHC
# Description: Frozen membranes of human Dopamine D2L receptor-transfected CHO cells were thawed, briefly homogenised using an Ultra-Turrax T25 homogeniser and diluted in Tris-HCl assay buffer containing NaCl, CaCl2, MgCl2, KCl (50, 120, 2, 1, and 5 mM respectively, adjusted to pH 7.7 with HCl) to an appropriate protein concentration optimised for specific and non-specific binding. Radioligand [^3H]Spiperone (NEN, specific activity ˜70 Ci/mmol) was diluted in assay buffer at a concentration of 2 nmol/L. Prepared radioligand (50 μl), along with 50 μl of either the 10% DMSO control, Butaclamol (10-6 mol/l final concentration), or compound of interest, was then incubated (30 min, 37° C.) with 400 μl of the prepared membrane solution. Membrane-bound activity was filtered through a Packard Filtermate harvester onto GF/B Unifilterplates and washed with ice-cold Tris-HCl buffer (50 mM; pH 7.7; 6×0.5 ml). Filters were allowed to dry before adding scintillation fluid and counting in a Topcount scintillation counter. Percentage specific bound and competition binding curves were calculated using S-Plus software (Insightful).
Compound,NET Reuptake Inhibition [1],IC50 [2],IC50 [3],IC50 [4],pIC50 [1],h-5HT2C [2],h-5HT2A [3],h-D2L [4],pIC50 [2]
"Fc1ccc2c(c1)[C@@H]1[C@H](C[C@H]3CNC(=S)N31)c1ccccc1C2 [compound 3, (4aS,13bR,14aS)-6-fluoro-1,4a,9,13b,14,14a-hexahydrodibenzo-[3′,4′:6′,7′]cyclohepta-[1′,2′:4,5]pyrrolo[1,2-c]imidazole-3(2H)-thione]",5.24,240 nM,> 1000 nM,> 1000 nM,–,–,–,–,–
"OC1CCN(C[C@H]2C[C@@H]3c4ccccc4Oc4ccc(F)cc4[C@H]3N2)C1 (stereo partly drawn) [compound 20, 1-{[(2R,3aR,12bS)-11-fluoro-2,3,3a,12b-tetrahydro-1H-dibenzo[2,3:6,7]oxepino[4,5-b]pyrrol-2-yl]methyl}-3-pyrrolidinol]",–,110 nM,–,355 nM,6.38,–,–,–,–
"CN(C)C[C@H]1C[C@@H]2c3ccccc3Cc3ccc(F)cc3[C@H]2N1C [compound 5, [(2R,3aR,12bS)-11-fluoro-1-methyl-1,2,3,3a,8,12b-hexahydrodibenzo[3,4:6,7]cyclohepta[1,2-b]pyrrol-2-yl]-N,N-dimethylmethanamine]",–,5.37 nM,27.5 nM,132 nM,–,–,–,–,–
CN(C)C[C@H]1C[C@@H]2c3ccccc3Cc3ccc(F)cc3[C@H]2N1C=O [36c],6.65,–,–,–,–,7.11,6.26,5.31,–
"CN1CC(=O)N2[C@@H](C[C@@H]3c4ccccc4Cc4ccc(F)cc4[C@H]32)C1 [compound 4, (5aS,14bR,15aS)-7-fluoro-2-methyl-1,2,3,5a,10,14b,15,15a-octahydro-4H-dibenzo [3′,4′:6′,7′]cyclohepta[1′,2′:4,5]pyrrolo[1,2-a]pyrazin-4-one]",<5,> 1000 nM,> 1000 nM,> 1000 nM,–,–,–,–,–
"CN(CCO)C[C@H]1C[C@@H]2c3ccccc3Cc3ccc(F)cc3[C@H]2N1 [43b, 2-[{[(2R,3aR,12bS)-11-fluoro-1,2,3,3a,8,12b-exahydrodibenzo[3,4:6,7]cyclohepta[1,2-b]pyrrol-2-yl]methyl}(methyl)amino]-ethanol]",–,–,–,–,–,7.05,7.17,6.36,–
"CC(=O)N1[C@@H](CN(C)C)C[C@@H]2c3ccccc3Cc3ccc(F)cc3[C@H]21 [36b, [(2R,3aR, 1 2bS)-1-acetyl-11-fluoro-1,2,3,3a,8,12b-hexahydrodibenzo[3,4:6,7]cyclohepta[1,2-b]pyrrol-2-yl]-N,N-dimethylmethanamine]",–,> 1000 nM,> 1000 nM,> 1000 nM,5.41,–,–,–,–
"CN1C[C@@H]2C[C@@H]3c4ccccc4Cc4ccc(F)cc4[C@H]3N2C1=O [compound 16, (4aS,13bR,14aS)-6-fluoro-2-methyl-1,4a,9,13b,14,14a-hexahydrodibenzo[3′,4′:6′,7′]-cyclohepta[1′,2′:4,5]pyrrolo[1,2-c]imidazol-3(2H)-one]",–,> 10000 nM,> 10000 nM,> 10000 nM,< 5.00,–,–,–,–
"CN(C)C[C@@H]1C[C@@H]2c3ccccc3Cc3ccc(F)cc3[C@H]2[S@@+]1[O-] [compound 26, [(2S,3aR,12bS)-11-fluoro-1-oxido-3,3a,8,12b-tetrahydro-2H-dibenzo[3,4:6,7]-cyclohepta[1,2-b]thien-2-yl]-N,N-dimethylmethanamine]",–,> 10000 nM,> 10000 nM,> 10000 nM,< 5.00,–,–,–,–
"CN(C)C[C@H]1C[C@@H]2c3ccccc3Oc3ccc(F)cc3[C@H]2N1 [compound 17, [(2R,3aR,12bS)-11-fluoro-2,3,3a,12b-tetrahydro-lH-dibenzo[2,3 :6,7]oxepino[4,5-b]pyrrol-2-yl]-N,N-dimethylmethanamine]",–,501 nM,575 nM,2340 nM,8.13,–,–,–,–
"CSC1=NC[C@H]2C[C@@H]3c4ccccc4Cc4ccc(F)cc4[C@H]3N12 [compound 9, (4aS,13bR,14aR)-6-fluoro-3-(methylsulfanyl)-1,4a,9,13b,14,14a-hexahydrodibenzo-[3′,4′:6′,7′]cyclohepta[1′,2′:4,5]pyrrolo[1,2-c]imidazole]",–,> 1000 nM,> 1000 nM,> 1000 nM,5.40,–,–,–,–
"OCCN1CCN(C[C@H]2C[C@@H]3c4ccccc4Oc4ccc(F)cc4[C@H]3N2)CC1 [compound 19, 2-(4-{[(2R,3aR,12bS)-11-fluoro-2,3,3a,12b-tetrahydro-1H-dibenzo[2,3 :6,7]oxepino-[4,5-b]pyrrol-2-yl]methyl}-1-piperazinyl)ethanol]",–,4270 nM,–,112 nM,< 5.00,–,–,–,–
"COCCN1[C@@H](CN(C)C)C[C@@H]2c3ccccc3Cc3ccc(F)cc3[C@H]21 [compound 40, [(2R,3aR,12bS)-11-Fluoro-1-(2-methoxyethyl)-1,2,3,3a,8,12b-hexahydrodibenzo-[3,4:6,7]-cyclohepta[1,2-b]pyrrol-2-yl]-N,N-dimethylmethanamine]",–,263 nM,372 nM,> 1000 nM,6.32,–,–,–,–
"CN(C)C[C@H]1C[C@@H]2c3ccccc3Cc3ccc(F)cc3[C@H]2S1 [compound 23, [(2R,3aR,12bS)-11-fluoro-3,3a,8,12b-tetrahydro-2H-dibenzo[3,4:6,7]cyclohepta[1,2-b]thien-2-yl]-N,N-dimethylmethanamine]",–,229 nM,661 nM,5010 nM,7.55,–,–,–,–
"O=C1NC[C@@H]2C[C@@H]3c4ccccc4Cc4ccc(F)cc4[C@H]3N12 [compound 15, (4aS,13bR,14aS)-6-fluoro-1,4a,9,13b,14,14a-hexahydrodibenzo[3′,4′:6′,7′]cyclohepta-[1′,2′:4,5]pyrrolo[1,2-c]imidazol-3(2H)-one]",–,2340 nM,8320 nM,> 10000 nM,5.62,–,–,–,–
"COC(=O)N1[C@@H](CN(C)C)CC[C@@H]2c3ccccc3Cc3ccc(F)cc3[C@H]21 [compound 45, Methyl (2R,4aR,13bS)-2-[(dimethylamino)methyl]-12-fluoro-2,3,4,4a,9,13b-hexahydro-1H-dibenzo[3,4:6,7]cyclohepta[1,2-b]pyridine-1-carboxylate]",–,2240 nM,–,> 10000 nM,6.10,–,–,–,–
"O=C1CNC[C@H]2C[C@@H]3c4ccccc4Cc4ccc(F)cc4[C@H]3N12 [compound 12, (5aS,14bR,15aR)-7-fluoro-1,2,3,5a,10,14b,15,15a-octahydro-4H-dibenzo[3′,4′:6′,7′]-cyclohepta[1′,2′:4,5]pyrrolo[1,2-a]pyrazin-4-one]",–,–,–,832 nM,5.46,–,–,–,7.23
